Key:
Format in all cases: cell-based, human
HOK-16B cells [1] = assay: Cell adhesion assay on coated plates (crystal violet absorbance at 570 nm / cell counting); details: HOK-16B cells, 10 μg/well truncated or Ala-substituted peptide coating, 1 h
Experimental: The cell adhesion assay was performed according to a method reported by Okazaki et al. (J. Biol. Chem., 277:37070, 2002). In detail, 24-well culture plates (Nunc, Roskilde, Denmark) were coated with various amounts of rLG proteins at 4° C. overnight. The peptides were also coated on plates by drying overnight. The substrate-coated on the plates were blocked by adding 1% heat-inactivated bovine serum albumin (BSA) in PBS for 1 h at 37° C. and washed twice with PBS. The cells in the Experimental Example 1, detached by 0.05% tyrpsin and 0.53 mM EDTA in PBS and resuspended in culture media, were added (1×10^5 cells/500 μl) to each plate and incubated for 1 h at 37° C. After incubation, unattached cells were removed by rinsing twice with PBS. The attached cells were fixed with 10% formalin in PBS for 15 min, rinsed twice with PBS, and stained with 0.5% crystal violet for 1 h. The plates were gently rinsed with DDW three times and lysed with 2% SDS for 5 min. Absorbance was measured at 570 nm in a Bio-Rad Model 550 microplate reader (BioRad).
The cell adhesion and spreading activities on peptide-coated plates were examined using HOK-16B cells by the same method as Experimental Example 2. 24-well plates were coated with 10, 20, 30, 40 and 50 μg/well peptides P1 to P5, respectively. HOK-16B cells were added to peptide-coated plates and cultured for 1 h in serum-free medium for 1 hr. After the unbound cells were washed off, adherent cells were fixed and stained with crystal violet, and then the stained cells were analyzed. Absorbance was measured at 570 nm in a microplate reader. BSA and the rLG3 were used as negative control and positive control, respectively.
It was observed that peptide P4 promotes strong cell adhesion and spreading activities and binds to integrin α3β1 in the Example 4. Therefore, to determine the biologically active core sequences in peptide P4, five synthetic peptides (P4 D-I to P4 D-V), which are C-terminal truncated peptides from the peptide P4, and six synthetic peptides (P4 D-N1 to P4 D-N6), which are N-terminal truncated peptides from the peptide P4 were prepared (FIG. 6A) and examined for HOK-16B cell adhesion and spreading activities on peptide-coated plates by the present inventors. 24-well plates were coated with 10 μg/well C-terminal truncated peptides or N-terminal truncated peptides, and HOK-16B cells were added to the plates, and then cultured in serum-free medium for 1 hr. After the unbound cells were washed off, the adherent cells were fixed to stain with crystal violet, and the stained cells were analyzed. Absorbance was measured at 570 nm in a microplate reader. Peptide P4 and BSA were used as the positive and negative controls, respectively.
24-well plates were coated with 10 μg/well peptides, and HOK-16B cells were added to the plates, and then cultured in serum-free medium for 1 hr. After the unbound cells were washed off, the adherent cells were fixed to stain with crystal violet, and the stained cells were analyzed. Peptide P4 and BSA were used as the positive and negative controls, respectively. The results were expressed as mean ±SD of the four independent experiments.

HOK-16B cells [2] = assay: Cell spreading activity assay on coated plates; details: HOK-16B cells, 10 μg/well truncated or Ala-substituted peptide coating, 1 h
Experimental: To identify spreading cells, attached cells were fixed with 10% formalin in PBS for 15 min, rinsed twice with PBS, and stained with 0.005% crystal violet for 1 h. The plates were then gently rinsed with DDW. To ensure a representative count, each plate was divided into quarters, two fields per quarter were photographed using an Olympus BX51 microscope at 100× magnification. Cells that had adopted a flattened, polygonal shape, with filopodia-and lamellipodia-like extensions were considered to be spreading cells. In contrast, cells that resisted being washed and remained tethered to the plate surface were considered to be non-spreading cells.
To examine the adhesion activity of peptide P4 in detail, the inventors examined whether the adherent cells were tethered to the substratum or spread over the substratum. The BSA and rLG3 were used as the negative control and positive control, respectively, the percentage of cells displaying a spreading morphology was quantified by dividing the number of spreading cells by the total number of bound cells.

FAK = FAK phosphorylation assay (immunoblot, p-FAK/t-FAK); details: for FAK phosphorylation level at Tyr-397: peptides 50 μg/60-mm dish
Experimental: The FAK phosphorylation assays were performed according to a method of Shang et al. (J. Biol. Chem., 276:33045, 2001). In detail, the HOK-16B cells were trypsinized, washed, and kept in suspension in serum-free KGM with 0.1% BSA for 1 h at 37° C. The 60-mm culture dishes were coated with laminin (5 μg/ml) or rLG3 protein (25 μg/ml) at 4° C. overnight. Peptides (50 μg/60-mm culture dish) were also coated on dishes by drying overnight. For the adherent FAK assay, 1×10^6 cells were plated onto uncoated, laminin-coated, rLG3 protein-coated, or various peptide-coated dishes and allowed to attach for 15, 30, or 60 min at 37° C. in an atmosphere of 5% CO2. At the end of the incubation, cells were washed with ice-cold PBS and lysed in RIPA buffer (50 mM Tris [pH 7.4], 150 mM NaCl, 1% Nonidet P-40, 0.5% Na-deoxycholate, 1 mM EDTA, 0.1% SDS, 2 mM Na3VO4, 1 mM glycerol phosphate, 1 mM PMSF, and protease inhibitor cocktail). Lysates were clarified by centrifugation at 12,000×g for 10 min at 4° C. to isolate cytosolic extracts.
The cytosolic extracts were denatured using SDS sample buffer [50 mM Tris-HCl (pH 6.8), 2% SDS, 10% glycerol, 0.1% bromophenol blue, 100 mM β-mercaptoethanol] and separated on an 8% SDS-polyacrylamide gel. Electrophoretic transfer of SDS-PAGE gel separated with protein to a nitrocellulose membrane was followed by immnoblotting with polyclonal anti-FAK antibodies to determine the total FAK level or immnoblotting with polyclonal anti-FAK [pY^397], [pY^407], [pY^576], [pY^577] or [pY^861] antibodies to determine the extent of tyrosine phosphorylation. The relative fold induction of FAK phosphorylation, defined as an increase in FAK phosphorylation of a sample relative to its corresponding background level (i.e., cells plated on plastic) was determined as follows: First, the densitomerty intensity of the phosphorylated FAK (p-FAK) and the total FAK (t-FAK) signals from the Western blots were measured with a LAS-1000plus (Fuji photo film, Japan). The ratio of p-FAK to t-FAK (p-FAK/t-FAK) for each sample was then calculated to correct for differences in protein loading. This ratio was normalized to the p-FAK/t-FAK ratio of the negative controls to obtain the relative fold induction of FAK phosphorylation.
HOK-16B cells isolated by trypsinization were suspended for 1 hr, and kept in suspension (Sus), or replated on 60-mm culture dishes coated with or without laminin (5 μg/ml). The cells were kept for 15, 30, or 60 min for being attached on plates, then cell lysates were analyzed by immunoblot analysis with anti-FAK p-Y397 antibody (Biosource, Camariollo, Calif.). […] This effect was observed within 15 min and peaked at 15 min after exposure to the laminin-coated plate (FIG. 8A).
Therefore, the extent of FAK phosphorylation at Tyr-397,-407,-576, -577, and -861 was investigated in HOK-16B cells cultured on plates coated with laminin (5 μg/ml), rLG3 (25 μg/ml), or peptides P1-P5 (50 μg/60-mm dish) for 15 min. The lysates were immnoblotted with polyclonal anti-FAK, p-Y397, p-Y407, p-Y576, p-Y577 or p-Y861 antibodies (Biosoucce, Camariollo, Calif.), and the total FAK level was detected using anti-FAK antibodies (Upstate Biotechnology, Lake Placid, N.Y. The ratio of p-FAK to t-FAK (p-FAK/t-FAK) for each sample was then calculated to correct for differences in protein loading. This ratio was normalized to the p-FAK/t-FAK ratio of the negative controls (cells on plates) to obtain the relative fold induction of FAK phosphorylation. As a result, the extent of FAK phosphorylation at Tyr-397 cultured on the laminin-coated or rLG3 protein-coated plates increased 16.2- and 8.2-fold compared with the untreated control (FIG. 8B).

[3] = HOK-16B cells on coated dishes, laminin 5 μg/ml

P4-S2: peptide P4 in which Ala substituted for Arg (PPFLMLLKGSTA)
cell adhesion activity compared to the peptide P4 control (HOK-16B cells [1]): significantly inhibited
cell spreading activity compared to the peptide P4 control (HOK-16B cells [2]): significantly inhibited
FAK phosphorylation level at Tyr-397 (FAK; [3]): significantly decreased

laminin [reference compound]
changes of the FAK phosphorylation levels at Tyr-407, -576 and -861 (FAK; HOK-16B cells on coated dishes, 15 min): not observed
FAK phosphorylation level at Tyr-397 (FAK; [3]): notably higher
increase of FAK phosphorylation at Tyr-397 compared with the untreated control (FAK; HOK-16B cells, 15 min, laminin 5 μg/ml or rLG3 25 μg/ml coating, p-FAK/t-FAK normalized): 16.2 fold
time of peak FAK phosphorylation at Tyr-397 after exposure to coated plate (FAK; laminin 5 μg/ml, 15, 30 or 60 min tested): 15 min

P4-S3: peptide P4 in which Ala substituted for both Lys and Arg (PPFLMLLAGSTA)
cell adhesion activity compared to the peptide P4 control (HOK-16B cells [1]): significantly inhibited
cell spreading activity compared to the peptide P4 control (HOK-16B cells [2]): significantly inhibited
FAK phosphorylation level at Tyr-397 (FAK; [3]): significantly decreased
